This note sets out measurements from patent US8518965B2, “Compositions and methods for treating cancer” (Trustees of Dartmouth College, priority 2009, dated 2013).

SMILES strings stand for the structures. Where two headings read alike, the source gives them in different places. Marks after values point to notes of the source that are not given here.

Series [1] can be described thus: Solubility in solvents and buffers. Format: physicochemical. The method, then:
Characterization of D11B. The solubility of D11B in different solvents was analyzed (Table 1).
(§1) The solubility of D11B in various combinations of solvents was also analyzed. […] For the analysis of co-solvents, stock solutions were prepared by dissolving D11B in a corresponding solvent. Stock solutions of D11B in dimethylsulfoxide (DMSO) were prepared at 25° C., and stock solutions of D11B in PEG-400, CREMOPHOR® EL and Polysorbate 80 were prepared at 100° C. Injection solutions, in water (0.3 mg/ml), were prepared by dropwise addition of the stock solution to a required volume of vigorously stirred hot water (80° C.).
The solubility of D11B×2AH in DMSO, PEG-400, EtOH, and buffer was determined (Table 7).

A short description of series [2]: State of stock and injection solutions in water + co-solvents. Format: physicochemical. The method, then:
as §1
Additional solubility determinations were carried out with D11B×2AH in water+co-solvents. For this analysis, stock solutions were prepared by dissolving D11B×2AH in a corresponding solvent. Stock solutions of D11B×2AH in DMSO were prepared at 25° C. and stock solutions of D11B×2AH in PEG-400 were prepared at 100° C.
Injection solutions in water (0.3 mg/ml) were prepared by dropwise addition of each stock solution to a required volume of vigorously stirred water.

Series [3] relates to SF 295 human glioblastoma cells. The series can be described thus: Colony formation assay, SF 295 cells. Format: cell-based. To be noted: for IC50: Homo sapiens, SF 295 cells, 72 hours with compound, colonies counted after 10 days (Example 10), read-out: IC50; for Killing / inhibition of the growth of SF 295 human glioblastoma cells (in words): Example 10. The method, then: (§2) NCI/ADR-RES human breast cancer cells (500 cells), HCT116 human colon cancer cells (400 cells) or SF 295 human glioblastoma cells (1000 cells) were plated in 60 mm Petri dishes containing 2.7 ml of medium (modified McCoy's 5a medium containing 10% fetal bovine serum and 100 units/ml penicillin and 100 μg/ml streptomycin). The cells were incubated in a CO2 incubator at 37° C. for 5 hours for attachment to the bottom of Petri dishes. Compounds were prepared fresh in medium at ten times the final concentration, and then 0.3 ml of this stock solution was added to the 2.7 ml of medium in the dish. The cells were then incubated with compounds for 72 hours at 37° C. At the end of incubation, the compound-containing media were decanted, the dishes were rinsed with 4 ml of Hank's Balance Salt Solution (HBSS), 5 ml of fresh medium was added, and the dishes were returned to the incubator for colony formation. The cell colonies were counted using a colony counter after incubation for 14 days for NCI/ADR-RES cells and 10 days for HCT116 cells and SF 295 cells. Cell survival was calculated and the IC50 values (the drug concentration producing 50% inhibition of colony formation) were determined for each tested compound.
One thousand SF 295 cells were plated in 60 mm Petri dishes containing 2.7 ml of medium (modified McCoy's 5a medium containing 10% fetal bovine serum and 100 units/ml penicillin and 100 μg/ml streptomycin). The cells were incubated in a CO2 incubator at 37° C. for 5 hours for attachment to the bottom of Petri dishes. Compounds were prepared fresh in medium at ten times the final concentration, and then 0.3 ml of this stock solution was added to the 2.7 ml of medium in the dish. The cells were then incubated with the compounds for 72 hours at 37° C. At the end of incubation, the compound-containing media were decanted, the dishes were rinsed with 4 ml of Hank's Balance Salt Solution (HBSS), 5 ml of fresh medium was added, and the dishes were returned to the incubator for colony formation. After incubation for 10 days, the cell colonies were counted using a colony counter. Cell survival was calculated and the values of IC50 were determined for each compound tested.

Series [4] concerns normal C3H/HeN mice. The series can be described thus: Maximum tolerated dose (MTD40) in normal mice. To be noted: suspension formulation, single intraperitoneal injection, 40 days.
Procedure: The MTD40 (maximum tolerated dose at day 40) values were determined on normal C3H/HeN mice using standard procedures. […] The result of this exercise was two dosages, one apparently nonlethal and the other lethal, if severe and irreversible toxicity occurred and euthanasia was required. Six mice were dosed at each dosage. If no severe and irreversible toxicity occurred at the lower dosage and at least one with severe and irreversible toxicity at the higher dose, then the lower dose was considered to be the MTD.
Compounds were administered to C3H/HeN mice by intraperitoneal injection (5% alcohol, 5% CREMOPHOR® EL, and 90% saline, 0.5 ml/20 gram, single injection). Drug toxicity was evaluated on mice checked daily for 40 days. The toxicity parameters reported were the MTD40. […] At the end of experiment, all mice were euthanized.
The toxicity parameters reported were the MTD40. At the end of experiment, all mice will be euthanized.
Series [5] relates to HCT116 human colon cancer cells. The series can be described thus: Colony formation assay, HCT116 cells. The series is classed as cell-based. To be noted: 72 hours with compound, colonies counted after 24 days (Example 9), read-out: IC50. The method, then: as §2
Four hundred HCT116 cells were plated in 60 mm Petri dishes containing 2.7 ml of medium (modified McCoy's 5a medium containing 10% fetal bovine serum and 100 units/ml penicillin and 100 μg/ml streptomycin). The cells were incubated in a CO2 incubator at 37° C. for 5 hours for attachment to the bottom of Petri dishes. Compounds were prepared fresh in medium at ten times the final concentration, and then 0.3 ml of this stock solution was added to the 2.7 ml of medium in the dish. The cells were then incubated with drugs for 72 hours at 37° C. At the end of incubation the compound-containing media were decanted, the dishes were rinsed with 4 ml of Hank's Balance Salt Solution (HBSS), 5 ml of fresh medium was added, and the dishes were returned to the incubator for colony formation. HCT116 cell colonies were counted using a colony counter after […] of incubation. Cell survival was calculated and IC50 values were determined for each compound tested.

The mark [6] stands for this setting: Homo sapiens, HCT-116, HCT116 cells.

With `c1ccc2c(Nc3ccc(Oc4ccc(Nc5c6ccccc6nc6ccccc56)cc4)cc3)c3ccccc3nc2c1` [D11Bx2AH 7, D11B bis(3,4-dihydroxyphenylacetate)], in series [1] (D11Bx2AH salts, DMSO, listed as 7), the “Solubility (mg/ml), 25° C.” value was determined as 66 mg/mL. Further, the “State of the stock solution” value in series [2] (bis(3,4-dihydroxyphenylacetate) (7) in DMSO, 66 mg/ml) is listed as “clear”. Moreover, in series [2] (bis(3,4-dihydroxyphenylacetate) (7) in H2O—DMSO 0.3 mg/ml, DMSO 0.5 wt. %), the “State of the injection solution” value is “clear”.

`c1ccc2c(Nc3ccc(Oc4ccc(Nc5ncnc6ccccc56)cc4)cc3)ncnc2c1` [Compound D281] had a melting point of 124 to 125 °C. In addition, the IC50 in series [3] is over 5000 nM.

The compound `c1ccc2c(c1)Cc1c-2nc2ccccc2c1Nc1ccc(Oc2ccc(Nc3c4c(nc5ccccc35)-c3ccccc3C4)cc2)cc1` [Compound D275] showed a melting point of 114 to 115 °C. In series [3], the “Killing / inhibition of the growth of SF 295 human glioblastoma cells (in words)” value (“Killing / inhibition” for short) is “effective” and the IC50 is 1420 nM.

Consider `c1ccc2c(Nc3ccc(Oc4ccc(Nc5c6ccccc6nc6ccccc56)cc4)cc3)c3ccccc3nc2c1` [D11Bx2AH 1, D11B digluconate], for which the “Solubility (mg/ml), 25° C.” value in series [1] (D11Bx2AH salts, DMSO, listed as 1) is 31 mg/mL; in series [1] (D11Bx2AH salts, PEG-400, samples were dissolved at 100° C., listed as 1) it was over 10 mg/mL. Moreover, the solubility in series [1] (EtOH, 25 °C, organic solvent or mixture, D11Bx2AH salts, EtOH, read-out: Solubility (mg/ml), 25° C.) was over 1 mg/mL; in series [1] (PEG-400, organic solvent or mixture, PEG-400 (Table 16), heating to 100° C. was required, read-out: Solubility) it was over 10 mg/mL; in series [1] (buffer, 25 °C, pH 4, aqueous buffer, D11Bx2AH salts, Buffer (pH = 4), even at 100° C., read-out: Solubility (mg/ml), 25° C.), over 0.5 mg/mL; in series [1] (buffer, 25 °C, pH 6, aqueous buffer, D11Bx2AH salts, Buffer (pH = 6), even at 100° C., read-out: Solubility (mg/ml), 25° C.), over 0.5 mg/mL. In addition, the “State of the stock solution” value in series [2] (digluconate (1) in DMSO, 22 mg/ml) is reported as “clear”; in series [2] (digluconate (1) in DMSO, 31 mg/ml), “clear”. Also, the “State of the injection solution” value in series [2] (digluconate (1) in H2O—DMSO 0.3 mg/ml, stock 22 mg/ml, DMSO 1.50 wt. %) is “clear”; in series [2] (digluconate (1) in H2O—DMSO 0.3 mg/ml, stock 31 mg/ml, DMSO 1.06 wt. %), “clear”.

Consider `c1ccc2c(Nc3ccc(Oc4ccc(Nc5ccnc6ccccc56)cc4)cc3)ccnc2c1` [Compound D245B], for which, in series [4], the “Values of MTD40” value was found to be 25 mg/kg. Besides, the values for the IC50 in series [5] (HCT116 cells), in series [5] (setting [6]) and in series [3] were 79 nM, 122 nM and 133 nM, respectively. For the same compound, the “Killing / inhibition” value in series [3] is reported as “effective”.

Turning to `c1ccc2c(Nc3ccc(Oc4ccc(Nc5cnnc6ccccc56)cc4)cc3)cnnc2c1` [Compound D284], the melting point turned out to be 362 °C. Moreover, the IC50 in series [3] was over 5000 nM.

Regarding `c1cc(Nc2ccc(Oc3ccc(Nc4ccncc4)cc3)cc2)ccn1` [Compound D244], in series [5] (setting [6]), the IC50 is 4220 nM.

Consider `c1ccc2c(Nc3ccc(Oc4ccc(Nc5c6ccccc6nc6ncccc56)cc4)cc3)c3cccnc3nc2c1` [Compound D254], for which, in series [5] (HCT116 cells), the IC50 was determined as 1460 nM.

On to `c1ccc2c(Nc3ccc(Oc4ccc(Nc5c6ccccc6nc6ncccc56)cc4)cc3)c3cccnc3nc2c1` [Compound 254B], for which the melting point lay in the range of 338 to 340 °C. Moreover, in series [5] (HCT116 cells), the IC50 turned out to be 722 nM.

The compound `c1nc(Nc2ccc(Oc3ccc(Nc4ncnc5[nH]cnc45)cc3)cc2)c2nc[nH]c2n1` [Compound D276] came in with a melting point of 372 °C. For the same compound, the IC50 in series [3] was over 5000 nM.

As for `Cc1cc(Nc2ccc(Oc3ccc(Nc4cc(C)nc5ccccc45)cc3)cc2)c2ccccc2n1` [Compound D288], the “Values of MTD40” value in series [4] is recorded as 25 mg/kg. Moreover, in series [3], the “Killing / inhibition” value was “effective” and the IC50 stood at 85 nM.

Compound `c1cc(Nc2ccc(Oc3ccc(Nc4ccncc4)cc3)cc2)ccn1` [Compound 244B] returned a melting point of 263 to 264 °C. In series [5] (HCT116 cells), the IC50 was 3340 nM.

For the compound `c1ccc2c(Nc3ccc(Oc4ccc(Nc5c6ccccc6nc6ccccc56)cc4)cc3)c3ccccc3nc2c1` [D11Bx2AH 4, D11B dilactabionate], the “Solubility (mg/ml), 25° C.” value in series [1] (D11Bx2AH salts, DMSO, listed as 4) is 40 mg/mL; in series [1] (D11Bx2AH salts, PEG-400, samples were dissolved at 100° C., listed as 4) it was over 10 mg/mL. In addition, the “Solubility (mg/ml)” value in series [1] (PEG-400 (Table 16), heating to 100° C. was required, listed as dilactabionate (4)) was >10^ mg/ml. Moreover, the “State of the stock solution” value is recorded as “clear” in series [2] (dilactobionate (4) in DMSO, 20 mg/ml) and “clear” in series [2] (dilactobionate (4) in DMSO, 40 mg/ml). Further, the “State of the injection solution” value in series [2] (dilactobionate (4) in H2O—DMSO 0.3 mg/ml, stock 20 mg/ml, DMSO 1.36 wt. %) was “clear”; in series [2] (dilactobionate (4) in H2O—DMSO 0.3 mg/ml, stock 40 mg/ml, DMSO 0.68 wt. %), “clear”.

The compound `c1ccc2c(Nc3ccc(Oc4ccc(Nc5nccc6ccccc56)cc4)cc3)nccc2c1` [Compound D278] came in with a melting point of 110 to 112 °C. Further, the IC50 in series [3] was over 5000 nM.

Take `c1ccc2c(Nc3ccc(Oc4ccc(Nc5c6ccccc6nc6ccccc56)cc4)cc3)c3ccccc3nc2c1` [D11Bx2AH 6, D11B digallate]: the “Solubility (mg/ml), 25° C.” value in series [1] (D11Bx2AH salts, DMSO, listed as 6) amounted to 325 mg/mL. In addition, the “Solubility (mg/ml)” value in series [1] (PEG-400 (Table 16), heating to 100° C. was required, listed as digallate (6)) is given as 20^a mg/ml. In addition, in series [1] (PEG-400, 25 °C, organic solvent or mixture, D11Bx2AH salts, PEG-400, samples were dissolved at 100° C., read-out: Solubility (mg/ml), 25° C.), the solubility came to 20 mg/mL. The “State of the stock solution” value is given as “clear” in series [2] (digalate (6) in DMSO, 20 mg/ml); “clear” in series [2] (digalate (6) in DMSO, 39.9 mg/ml); “clear” in series [2] (digalate (6) in DMSO, 77 mg/ml); “clear” in series [2] (digalate (6) in DMSO, 158 mg/ml); “clear” in series [2] (digalate (6) in DMSO, 325 mg/ml). For the same compound, the “State of the injection solution” value in series [2] (digalate (6) in H2O—DMSO 0.3 mg/ml, stock 20 mg/ml, DMSO 1.65 wt. %) is listed as “clear”; in series [2] (digalate (6) in H2O—DMSO 0.3 mg/ml, stock 39.9 mg/ml, DMSO 0.83 wt. %), “clear”; in series [2] (digalate (6) in H2O—DMSO 0.3 mg/ml, stock 325 mg/ml, DMSO 0.1 wt. %), “prec”.

Usually melting point stands for the temperature, or range, at which the solid turns liquid. What is called IC50 is the concentration that inhibits the measured activity by half.
